Measured values reported in ChEMBL document CHEMBL1146459, “Production of biologically active taxoids by a callus culture of Taxus cuspidata” (2004).

Columns and labels:
[1] = Reversal of multidrug resistance in human 2780AD cells assessed as [3H]vincristine accumulation at 1 ug/mL after 2 hrs relative to verapamil; format: functional, A2780 ADR
[2] = Reversal of multidrug resistance in human 2780AD cells assessed as [3H]vincristine accumulation at 10 ug/mL after 2 hrs relative to verapamil; format: functional, A2780 ADR
[3] = Growth inhibition of human BSY1 cells after 48 hrs by SRB assay; format: functional; settings: BSY-1, 48 h
[4] = Growth inhibition of human HBC5 cells after 48 hrs by SRB assay; format: functional; settings: HBC5, 48 h
U-251 = assay: Growth inhibition of human U251 cells after 48 hrs by SRB assay; format: functional; settings: U-251, 48 h
SF-295 = assay: Growth inhibition of human SF295 cells after 48 hrs by SRB assay; format: functional; settings: SF-295, 48 h
SF-539 = assay: Growth inhibition of human SF539 cells after 48 hrs by SRB assay; format: functional; settings: SF-539, 48 h
SNB-75 = assay: Growth inhibition of human SNB75 cells after 48 hrs by SRB assay; format: functional; settings: SNB-75, 48 h
SNB-78 = assay: Growth inhibition of human SNB78 cells after 48 hrs by SRB assay; format: functional; settings: SNB-78, 48 h
HCT-15 = assay: Growth inhibition of human HCT15 cells after 48 hrs by SRB assay; format: functional; settings: HCT-15, 48 h
HCT-116 = assay: Growth inhibition of human HCT116 cells after 48 hrs by SRB assay; format: functional; settings: HCT-116, 48 h
NCI-H522 = assay: Growth inhibition of human NCI-H522 cells after 48 hrs by SRB assay; format: functional; settings: NCI-H522, 48 h
NCI-H460 = assay: Growth inhibition of human NCI-H460 cells after 48 hrs by SRB assay; format: functional; settings: NCI-H460, 48 h
A549 = assay: Growth inhibition of human A549 cells after 48 hrs by SRB assay; format: functional; settings: A549, 48 h
DMS-273 = assay: Growth inhibition of human DMS273 cells after 48 hrs by SRB assay; format: functional; settings: DMS-273, 48 h
OVCAR-3 = assay: Growth inhibition of human OVCAR-3 cells after 48 hrs by SRB assay; format: functional; settings: OVCAR-3, 48 h
OVCAR-8 = assay: Growth inhibition of human OVCAR8 cells after 48 hrs by SRB assay; format: functional; settings: OVCAR-8, 48 h
SK-OV-3 = assay: Growth inhibition of human SKOV3 cells after 48 hrs by SRB assay; format: functional; settings: SK-OV-3, 48 h
[5] = Growth inhibition of human MKN1 cells after 48 hrs by SRB assay; format: functional; settings: MKN-1, 48 h
MKN-7 = assay: Growth inhibition of human MKN7 cells after 48 hrs by SRB assay; format: functional; settings: MKN-7, 48 h
MKN-28 = assay: Growth inhibition of human MKN28 cells after 48 hrs by SRB assay; format: functional; settings: MKN-28, 48 h
MKN-45 = assay: Growth inhibition of human MKN45 cells after 48 hrs by SRB assay; format: functional; settings: MKN-45, 48 h
[6] = read-out: LC50 (the source's name)
[7] = read-out: pLC50 (the source's name) (converted)

C=C1[C@@H](OC(C)=O)CC[C@@]2(C)C[C@H](OC(C)=O)C3=C(C)C[C@H](OC(=O)C(C)CC)[C@@H]([C@@H](OC(C)=O)[C@H]12)C3(C)C (stereo not given in full)
Activity [1]: 123% | Activity [2]: 132% | GI50 ([3]; read-out: GI50): 30 µM | CC50 [3, 6]: > 100 µM | TGI ([3]; read-out: TGI): > 100 µM | GI50 ([3]; read-out: pGI50 (converted)): 30.2 µM | TGI ([3]; read-out: pTGI (converted)): 100 µM | GI50 ([4]; read-out: GI50): 25 µM | CC50 [4, 6]: > 100 µM | TGI ([4]; read-out: TGI): > 100 µM | GI50 ([4]; read-out: pGI50 (converted)): 25.1 µM | CC50 [4, 7]: 100 µM | TGI ([4]; read-out: pTGI (converted)): 100 µM | GI50 (U-251; read-out: GI50): 36 µM | CC50 (U-251; [6]): > 100 µM | TGI (U-251; read-out: TGI): > 100 µM | GI50 (U-251; read-out: pGI50 (converted)): 36.3 µM | CC50 (U-251; [7]): 100 µM | TGI (U-251; read-out: pTGI (converted)): 100 µM | GI50 (SF-295; read-out: GI50): 21 µM | CC50 (SF-295; [6]): > 100 µM | TGI (SF-295; read-out: TGI): > 100 µM | GI50 (SF-295; read-out: pGI50 (converted)): 21.4 µM | TGI (SF-295; read-out: pTGI (converted)): 100 µM | GI50 (SF-539; read-out: GI50): 45 µM | CC50 (SF-539; [6]): > 100 µM | TGI (SF-539; read-out: TGI): > 100 µM | GI50 (SF-539; read-out: pGI50 (converted)): 44.7 µM | CC50 (SF-539; [7]): 100 µM | TGI (SF-539; read-out: pTGI (converted)): 100 µM | CC50 (SNB-75; [6]): > 100 µM | TGI (SNB-75; read-out: TGI): 55 µM | GI50 (SNB-75; read-out: pGI50 (converted)): 8.91 µM | CC50 (SNB-75; [7]): 100 µM | TGI (SNB-75; read-out: pTGI (converted)): 55 µM | GI50 (SNB-78; read-out: GI50): 50 µM | CC50 (SNB-78; [6]): > 100 µM | TGI (SNB-78; read-out: TGI): > 100 µM | GI50 (SNB-78; read-out: pGI50 (converted)): 50.1 µM | TGI (SNB-78; read-out: pTGI (converted)): 100 µM | GI50 (HCT-15; read-out: GI50): 32 µM | CC50 (HCT-15; [6]): > 100 µM | TGI (HCT-15; read-out: TGI): > 100 µM | GI50 (HCT-15; read-out: pGI50 (converted)): 32.4 µM | CC50 (HCT-15; read-out: pLC50 (converted)): > 100 µM | TGI (HCT-15; read-out: pTGI (converted)): 100 µM | GI50 (HCT-116; read-out: GI50): 30 µM | CC50 (HCT-116; [6]): > 100 µM | TGI (HCT-116; read-out: TGI): > 100 µM | GI50 (HCT-116; read-out: pGI50 (converted)): 30.2 µM | CC50 (HCT-116; [7]): 100 µM | TGI (HCT-116; read-out: pTGI (converted)): 100 µM | GI50 (NCI-H522; read-out: GI50): 15 µM | CC50 (NCI-H522; [6]): > 100 µM | TGI (NCI-H522; read-out: TGI): 49 µM | GI50 (NCI-H522; read-out: pGI50 (converted)): 24 µM | CC50 (NCI-H522; [7]): 100 µM | TGI (NCI-H522; read-out: pTGI (converted)): 49 µM | GI50 (NCI-H460; read-out: GI50): 36 µM | CC50 (NCI-H460; [6]): > 100 µM | TGI (NCI-H460; read-out: TGI): > 100 µM | GI50 (NCI-H460; read-out: pGI50 (converted)): 35.5 µM | TGI (NCI-H460; read-out: pTGI (converted)): 100 µM | GI50 (A549; read-out: GI50): 30 µM | CC50 (A549; [6]): > 100 µM | TGI (A549; read-out: TGI): > 100 µM | GI50 (A549; read-out: pGI50 (converted)): 30.2 µM | CC50 (A549; [7]): 100 µM | TGI (A549; read-out: pTGI (converted)): 100 µM | GI50 (DMS-273; read-out: GI50): 22 µM | CC50 (DMS-273; [6]): > 100 µM | TGI (DMS-273; read-out: TGI): > 100 µM | GI50 (DMS-273; read-out: pGI50 (converted)): 22.4 µM | CC50 (DMS-273; [7]): 100 µM | TGI (DMS-273; read-out: pTGI (converted)): 100 µM | GI50 (OVCAR-3; read-out: GI50): 21 µM | CC50 (OVCAR-3; [6]): > 100 µM | TGI (OVCAR-3; read-out: TGI): 99 µM | GI50 (OVCAR-3; read-out: pGI50 (converted)): 20.4 µM | CC50 (OVCAR-3; read-out: pLC50 (converted)): > 100 µM | TGI (OVCAR-3; read-out: pTGI (converted)): 100 µM | GI50 (OVCAR-8; read-out: GI50): 37 µM | CC50 (OVCAR-8; [6]): > 100 µM | TGI (OVCAR-8; read-out: TGI): > 100 µM | GI50 (OVCAR-8; read-out: pGI50 (converted)): 37.2 µM | TGI (OVCAR-8; read-out: pTGI (converted)): 100 µM | GI50 (SK-OV-3; read-out: GI50): 68 µM | CC50 (SK-OV-3; [6]): > 100 µM | TGI (SK-OV-3; read-out: TGI): > 100 µM | GI50 (SK-OV-3; read-out: pGI50 (converted)): 69.2 µM | CC50 (SK-OV-3; [7]): 100 µM | TGI (SK-OV-3; read-out: pTGI (converted)): 100 µM | GI50 ([5]; read-out: GI50): 49 µM | CC50 [5, 6]: > 100 µM | TGI ([5]; read-out: TGI): > 100 µM | GI50 ([5]; read-out: pGI50 (converted)): 49 µM | TGI ([5]; read-out: pTGI (converted)): 100 µM | GI50 (MKN-7; read-out: GI50): 18 µM | CC50 (MKN-7; [6]): > 100 µM | TGI (MKN-7; read-out: TGI): 93 µM | GI50 (MKN-7; read-out: pGI50 (converted)): 18.2 µM | CC50 (MKN-7; [7]): 100 µM | TGI (MKN-7; read-out: pTGI (converted)): 93.3 µM | GI50 (MKN-28; read-out: GI50): 31 µM | CC50 (MKN-28; [6]): > 100 µM | TGI (MKN-28; read-out: TGI): > 100 µM | GI50 (MKN-28; read-out: pGI50 (converted)): 30.9 µM | CC50 (MKN-28; read-out: pLC50 (converted)): > 100 µM | TGI (MKN-28; read-out: pTGI (converted)): 100 µM | GI50 (MKN-45; read-out: GI50): 27 µM | CC50 (MKN-45; [6]): > 100 µM | TGI (MKN-45; read-out: TGI): > 100 µM | GI50 (MKN-45; read-out: pGI50 (converted)): 26.9 µM | CC50 (MKN-45; [7]): 100 µM | TGI (MKN-45; read-out: pTGI (converted)): 100 µM
